Experimental data as given in a melting point compilation (Tetko et al.; mined from patent text by program, amines drawn as free bases though some values may be those of a salt).
Non-standard residues stand in square brackets, D forms with d. Residues, ends and D or L forms follow the SMILES beside them. ξ: configuration not given here. *: point of attachment. Boc = CC(C)(C)OC(=O)*; ξA = CC(N)C(=O)O

| SMILES | melting point |
| --- | --- |
| CCNC(=O)Nc1c(Cl)cccc1[Si](C)(C)C | 161 to 163 °C |
| CC(O)c1c(-c2ccc(F)cc2)cc2c3c1ccn3C(=O)CNC2 (centres undefined) | 220 to 222 °C |
| COC(=O)C(C)(C)OCc1cc2cc(Cl)ccc2n1S(=O)(=O)c1cc(OC)ccc1OC | 132 to 134 °C |
| CCCOc1ccc(SCCSc2ccc(OCCC)cc2)cc1 | 111 to 112 °C |
| CN(C(=O)c1ccc(Cl)cc1)c1ccccc1CCCC(=O)O | 123 °C |
| N#Cc1cc(C#N)cc(Oc2c(C3CC3)n[nH]c2C2CC2)c1 | 168 to 170 °C |
| CC(=O)OC1CCN(c2c(F)cc3c(=O)c(C(=O)O)cn4c3c2CCC4C)CC1 (centres undefined) | 250 to 253 °C |
| O=C(CC(=O)C(F)F)c1ccc(Cl)cc1 | 65 to 66.5 °C |
| CCCOc1ccccc1-c1nc(C=NNC(=O)OCC)c[nH]1 | 129 to 132 °C |
| Cc1cc(OC=CCC(F)(F)F)nc(Oc2cc(C(F)(F)F)nn2C)c1 | 56 °C |
| CC(C)(C)OC(=O)n1cccc1-c1ccc2c(c1)C(C)(C)OC(=O)N2 | 172 to 173 °C |
| CCS(=O)(=O)N(C)C1CC(C)(C)Oc2ccc(O)cc21 (centres undefined) | 160 to 162 °C |
| CNc1cc(Oc2ccc(NC(=O)Nc3ccc(C(C)(C)C)cc3)cc2)ncn1 | 245 to 246 °C |
| CC1=C(c2ccncc2Cl)SCC(=O)N1 | 169 to 171 °C |
| CNc1cc(-c2sc(N)nc2-c2cccc(C)n2)ccc1[N+](=O)[O-] | 100 to 102 °C |
| COC(=O)CNC(=O)C(C)NC(=O)CNC(=O)CNC(=O)OC(C)(C)C (centres undefined) (Boc-GG[ξA]G-OMe) | 103 to 105 °C |
| CCc1cn(N=Cc2ccccc2)c(N)n1 | 164 to 167 °C |
| CNc1cc(C)nc2c(S(=O)(=O)c3ccc(C)cc3)c(SC)nn12 | > 230 °C |
| N#CC(C#N)(CC=C(Cl)Cl)Cc1ccc(OC(F)(F)F)cc1 | 96.5 °C |
| CNc1cc(OCC2CO2)ccc1[N+](=O)[O-] (centres undefined) | 113 °C |
| COc1ccc(N2CCN(c3c(C)c(C)c4c(c3C(C)C)CC(C)(C)O4)CC2)cc1 | 192 to 194 °C |
| COc1ccc(Cl)cc1C(CC(=O)O)c1ccccc1 (centres undefined) | 144 °C |
| CSc1cnc(NC2=NCC3(CN4CCC3CC4)O2)cn1 (centres undefined) | 155 to 160 °C |

| SMILES | melting point |
| --- | --- |
| O=[N+]([O-])c1cnn2cnc3ccccc3c12 | 177 to 178 °C |
| CCS(=O)(=O)C1(C(O)(Cn2cncn2)c2ccc(Cl)cc2)CC1 (centres undefined) | 215 °C |
| Cc1ccc(C)n1-c1nc(S(=O)(=O)Nc2cccc(Cl)c2Cl)n[nH]1 | 185 °C |
| CC(=O)N(OC(=O)NC(C)(C)C)C(=O)NC(C)(C)C | 111 to 113 °C |
| CCCCn1nc2c(N)nc3ccccc3c2c1CC(C)(C)C | 163 to 164 °C |
| Cc1c(-c2ccc(OCc3ccccc3)cc2)[nH]c2ccc(OCc3ccccc3)cc12 | 149 to 150 °C |
| Cc1ccc(C=CC(=O)C2CC2)cc1 | 75 to 76 °C |
| CCCCCC(=O)CCCCc1ccc(O)c(O)c1 | 76 to 78 °C |
| CCC(=O)NC(=S)NCC1CC2c3cccc4[nH]cc(c34)CC2N(C)C1 (centres undefined) | 225 to 226 °C |
| CCOC(=O)CC[C@H](NC(=O)/C=C/C(=O)c1ccccc1)C(=O)OCC | 83 to 85 °C |
| CCCCCOc1ccc(-c2ccc(CC[C@H]3CC[C@H](CCC)CC3)c(F)c2F)cc1 | 27 °C |
| CC(C)C(=O)c1cn(C)cc(-c2cccc(C(F)(F)F)c2)c1=O | 104 to 105 °C |
| O=C1Cc2cc(F)ccc2N1c1ccc(F)cc1 | 135 to 140 °C |
| CC(C)(C)OC(=O)N1[C@@H](C(=O)O)C[C@H](S(=O)(=O)c2ccccc2)[C@H]1c1ccccc1F (racemic) | 186 °C |
| CCC(C)n1nc(C)n(-c2ccc(N3CCCN(C(=O)OC(C)(C)C)CC3)cc2)c1=O (centres undefined) | 119 to 120 °C |
| N#Cc1nc(O)c(-c2cc(O)c(O)c([N+](=O)[O-])c2)nc1C#N | > 300 °C |
| CS(=O)(=O)c1ccc(CCNC(=O)C(N)=O)cc1OC1CCCC1 | 185 to 186 °C |
| CC(C)c1ccc2[nH]c(C(=O)c3ccc(Cl)cc3)c(CC(=O)O)c2c1 | 197 to 200 °C |
| CN1C(=O)CN=C(c2ccccc2F)c2cc(NC(=O)NC(C)(C)C)ccc21 | 210 °C |
| Cn1c(C(F)(F)F)ccc(-c2cc(S)c(Cl)cc2F)c1=O | 141 to 142 °C |
| CCNC(=S)N(CC)c1ccc(Cl)nc1 | 84 to 86 °C |
| COc1ccc(-c2ocnc2-c2cc(OC)c(O)c(OC)c2)cc1N | 101 to 102 °C |
| COC(=O)c1cc(NCc2c(F)c(F)c(C(F)(F)F)c(F)c2F)ccc1O | 127 °C |

| SMILES | melting point |
| --- | --- |
| Cc1nc(-c2cnc3[nH]cc(C(=O)N[C@@H](C(=O)N4CC(C#N)C4)C(C)(C)C)c3n2)cn1-c1cc(F)cc(F)c1 | 187 to 190 °C |
| CNC(=O)C(C)Oc1ccc(Oc2ccc(Cl)cc2)cc1 (centres undefined) | 117 to 118 °C |
| C=CCC(NC(=O)c1ccc(OC)cc1)C(=O)O (centres undefined) | 121 to 124 °C |
| CCCCCCCCCCC(O)C(O)CN (centres undefined) | 98 to 100 °C |
| Cc1nnc(-c2ccc3occ(-c4ccc(C(F)(F)F)cc4)c3c2)o1 | 190 to 191 °C |
| CCCNCc1cccc(OCCCNc2nc(N)nn2C)c1 | 79 to 81 °C |
| COC1C=C(C)C(=O)CC(C)(C)C1OC(=O)c1ccc(N)cc1N (centres undefined) | 178 to 179 °C |
| CCCc1nc(C(O)C(C)(C)C)c(C#N)n1Cc1ccc(-c2ccccc2-c2nnnn2C(c2ccccc2)(c2ccccc2)c2ccccc2)cc1 (centres undefined) | 115 to 117 °C |
| CC(C)(C)[Si](OC1CCC(O)C1COC(c1ccccc1)(c1ccccc1)c1ccccc1)(c1ccccc1)c1ccccc1 (centres undefined) | 95.6 to 97 °C |
| CS(=O)(=O)Nc1ccc2c(c1)C(=O)C(Br)CC2 (centres undefined) | 87 to 92 °C |
| COC(=O)c1ccc(C)cc1N(C)S(C)(=O)=O | 100 to 103 °C |
| N#CC1(c2ccccc2)CCCCC1 | 120 to 122 °C |
| O=[N+]([O-])c1cc(Cl)c(CCl)c(Cl)c1 | 37 to 39 °C |
| O=C(O)[C@H]1C[C@H](NC(=S)Nc2ccccc2)c2c(Cl)cc(Cl)cc2N1 (relative stereo) | 186 to 187 °C |
| CN(N=C(Cl)c1c(Cl)cccc1Cl)S(=O)(=O)c1ccccc1 | 103 to 104 °C |
| O=C1C2=C(CCCC2)C(=O)N1c1cc(CO)c(Cl)cc1F | 135 to 137 °C |
| CC1(C(=O)O)CCC(=O)c2cc(C3CCCCC3)c(Cl)cc21 (centres undefined) | 227 to 228 °C |
| CCc1c(C(N)=O)sc(SC)c1-c1oncc1C | 93.5 to 94.5 °C |
| N#Cc1ccc(O)cn1 | 191 to 194 °C |
| COC(=O)NC(=O)NS(=O)(=O)c1ccc([N+](=O)[O-])cc1 | 150 to 158 °C |
| CCCCc1cn(CCC(C)C)c(=O)n1Cc1ccc(-c2ccccc2-c2nnn[nH]2)nc1 | 168 to 170 °C |
| COc1ccc(CC(C)NCC(O)c2cccc(Cl)c2)cc1 (centres undefined) | 80 to 87 °C |
| CCS(=O)(=O)Nc1n[nH]c2nc(Oc3ccc(F)cc3F)ncc12 | 226 to 227 °C |

Other lines, results leading:

| melting point | SMILES |
| --- | --- |
| 72 °C | COC(=O)C1=C(C)NC(C)=C(C(=O)OCCCOc2ccc(CCCCO)cc2)C1c1cccc([N+](=O)[O-])c1 (centres undefined) |
| 229 to 231 °C | COc1ccc(NC(=O)c2ccc(F)c(F)c2)cc1NS(=O)(=O)c1ccc(N)cc1 |
| 133 to 135 °C | COc1ccccc1-c1ccc(C(=O)N2Cc3cccn3Cc3ccccc32)cc1C |
| 55 to 56 °C | CC(C)n1cnc2c(Nc3cccc(Cl)c3)nc(NCCN)nc21 |
| 139 to 140 °C | Cn1ncc2c1-c1c(Oc3ccc(OCc4ccc5ccccc5n4)cc3)sc(C(N)=O)c1CC2 |
| 57 to 60 °C | CC(CCCCOCCCc1ccc(N2CCCC2)cc1)NCC(O)c1cc(O)cc(O)c1 (centres undefined) |
| 102 to 104 °C | CC[C@H](C)[C@H](NC(=O)c1ccc(C)cc1)NC(=S)Nc1cccnc1 |
| 120 to 122 °C | CCN1CCCCC1c1ccccc1C=CC(=O)Nc1ccccc1 (centres undefined) |
| 198 to 199 °C | O=C(Nc1cccc(-c2ccnc3c(C(=O)c4cccs4)cnn23)c1)OCCCN1CCOCC1 |
| 163 °C | COc1ccccc1CNc1ccc2cc(Nc3ncccc3C)ccc2n1 |
| 98 to 99 °C | COc1ccc(N2CCN(C(=O)Oc3ccc(Oc4ccc(C(F)(F)F)cn4)cc3)CC2)c(OC)c1 |
| 144 °C | CN=C(Nc1cc(Cl)cc(Cl)c1)N1CCN(c2ccc(OC(C)=O)cc2OC)CC1 |
| 144 to 146 °C | COc1ccccc1N1CCN(CCCNC(=O)c2cccc3c(=O)cc(-c4ccccc4)sc23)CC1 |
| 187 to 188 °C | CC(C)(C)OC(=O)N[C@@H](Cc1ccccc1)[C@@H](O)C[C@@H](Cc1ccccc1)c1ncn[nH]1 |
| 101 to 104 °C | Nc1ccnc(CCCCCN2C(=O)c3ccccc3C2=O)n1 |
| 191 °C | Cn1ncc2c(=O)n3c(nc21)SC(c1ccccc1)C3 (centres undefined) |
| 103 °C | c1csc(-c2nc3ccccc3nc2OC2CCC2)c1 |
| 150 to 151 °C | Cc1ccc(S(=O)(=O)OCCC2C3=C(CC=CC3)CCc3ccccc32)cc1 (centres undefined) |
| 179 to 180 °C | CCn1ncc(C(=O)c2ccc(S(C)(=O)=O)c(-c3ccccc3C)c2C)c1O |
| 58 to 63 °C | O=C(Oc1cccc2sc(-c3ccc(OCCN4CCCC4)cc3)c(C(=O)c3ccc(F)cc3)c12)c1ccc(F)cc1 |
| 155 to 158 °C | CS(=O)(=O)OCCCOC(=O)c1[nH]c(-c2ccccc2)c2cc(Cl)ccc12 |
| 193 to 194 °C | CC(=O)OCCn1cnc2c(Cl)nc(Nc3ccccc3)nc21 |
| 93 to 94 °C | O=C(c1ccoc1)N1CCC(O)(C#Cc2cccc(Cl)c2)CC1 |
| 100 to 101 °C | C/C(=C\CC1OC(=O)NC1=O)c1cccc(OCCc2nc(-c3ccccc3)oc2C)c1 (centres undefined) |
| 153 to 155 °C | Cn1cc(C2=C(c3c4n(c5ccccc35)CCC(NC(=O)OC(C)(C)C)C4)C(=O)NC2=O)c2ccccc21 (centres undefined) |
| 206 to 208 °C | NS(=O)(=O)c1ccc(-c2c(-c3ccccc3)noc2COc2ccc(C(=O)O)cc2)cc1 |
| 149 to 155 °C | O=C(CNc1ccc2[nH]c(=O)sc2c1)N1CCC(Cc2ccc(F)cc2)CC1 |
| 119 to 123 °C | O=C(O)c1cc(-c2ccccc2)c2c(n1)OCCN(Cc1cc(C(F)(F)F)cc(C(F)(F)F)c1)C2=O |
| 165 °C | Cc1nc2sccn2c(=O)c1CCN1CCC(c2noc3cc(F)ccc23)CC1 |
| 95 °C | O=C1NC(=O)C(Cc2ccc(OC[C@@H]3CCCN3c3nc4ccccc4s3)cc2)S1 (some centres undefined) |
